This series in a line: photoluminescence quantum yield (fraction); solvent given as SMILES.

SMILES strings stand for the structures.

In turn, `Cc1cc2c3ccccc3[nH]c2c2[nH]c3ccccc3c12` came in with a photoluminescence quantum yield (in ClCCl) of 0.075.
Regarding `CCCCCCCCN1c2ccc(C#Cc3ccc(C(F)(F)F)cc3)cc2Sc2cc(C=O)ccc21`, the photoluminescence quantum yield is 0.67 (in C1CCOC1); 0.63 (in CC#N); 0.57 (in CCCCCC); 0.23 (in CO); 0.72 (in CS(C)=O); 0.62 (in Cc1ccccc1). The photoluminescence quantum yield (in ClC(Cl)Cl) was determined as 0.59.
With `C[Si]1(C)O[Si](C)(C)c2cc3c(-c4ccc(F)cc4)c4ccccc4nc3cc21`, where the note is “in ClCCl”, the photoluminescence quantum yield amounted to 0.39.
On the same count and under the same terms, to `CN(C)c1ccc(-c2cccc3nsnc23)cc1` belongs 0.47.
On to `O=C1c2cc(-n3c4ccccc4c4ccccc43)ccc2S(=O)(=O)c2ccc(-n3c4ccccc4c4ccccc43)cc21`, for which the photoluminescence quantum yield (in c1cc(-c2cccc(-n3c4ccccc4c4ccccc43)c2)cc(-n2c3ccccc3c3ccccc32)c1) was 0.348.
Compound `FC(F)(F)c1ccc(-c2nnc(-c3cc(-c4nnc(-c5ccc(C(F)(F)F)cc5)o4)c(-n4c5ccccc5c5ccccc54)cc3-n3c4ccccc4c4ccccc43)o2)cc1` had a photoluminescence quantum yield (in Cc1ccccc1) of 0.095 and a photoluminescence quantum yield (in O=P(c1ccccc1)(c1ccccc1)c1ccccc1Oc1ccccc1P(=O)(c1ccccc1)c1ccccc1) of 0.698.
Take `c1csc(-c2ccc3c4ccc(-c5cccs5)cc4n(-c4cccs4)c3c2)c1`: under “in ClCCl”, the photoluminescence quantum yield was 0.21.
On to `CC(C)[Si](C#Cc1ccc(C#Cc2c3cc4ccccc4cc3c(C#C[Si](C(C)C)(C(C)C)C(C)C)c3cc4ccccc4cc23)cc1)(C(C)C)C(C)C`, for which the photoluminescence quantum yield (in ClCCl) was determined as 0.12.
Consider `COc1ccc(-c2csc(/C(C#N)=C\Nc3ccc(C#N)cc3)n2)cc1`, for which the photoluminescence quantum yield worked out at 0.001 (in CC#N); 0.001 (in CCO); 0.003 (in CN(C)C=O); 0.003 (in Cc1ccccc1); 0.001 (in ClCCl).
Take `CN(C)c1ccc(/C=C/c2ccccc2)cc1`: the photoluminescence quantum yield by setting is: (in CC#N) 0.04; (in CCCCCC) 0.03.
With `COC(=O)c1cc(=O)n(C)c2cc(-c3ccc(N4CCN(C)CC4)cc3)sc12`, the photoluminescence quantum yield reads like this: (in CC#N) 0.03; (in ClCCl) 0.99.
On to `O=C1Cc2cc3c(cc2CCCc2ccc(cc2)CCC3)CC(=O)Cc2ccc(c3nsnc23)C1`, for which the photoluminescence quantum yield came to 0.13 (in C1CCCCC1), 0.01 (in CC#N) and 0.05 (in ClC(Cl)Cl).
In turn, `CCCCC(CC)Cn1c2cc(C#N)ccc2c2ccc(C#Cc3ccc4ccc5c(C#Cc6ccc7c8ccc(C#N)cc8n(CC(CC)CCCC)c7c6)ccc6ccc3c4c65)cc21` (stereo unspecified) displayed a photoluminescence quantum yield (in ClCCl) of 0.38.
Consider `COc1ccc(C2=[N+]3C(=C(c4ccc(I)cc4)c4ccc(-c5ccc(OC)cc5)n4[B-]3(F)F)C=C2)cc1`, for which, under “in ClC(Cl)Cl”, the photoluminescence quantum yield is 0.42.
`COc1cc(C2=c3c(c4ccc(C(C)(C)C)cc4c4c(OC)c(OC)c(OC)cc34)=[N+]3C2=Nc2c(-c4cc(OC)c(OC)c(OC)c4)c4c5cc(OC)c(OC)c(OC)c5c5cc(C(C)(C)C)ccc5c4n2[B-]3(F)F)cc(OC)c1OC` yielded a photoluminescence quantum yield (in Cc1ccccc1) of 0.001.
`CN1/C(=C/C=C(/C=C/C2=[N+](C)c3ccccc3C2(C)C)c2cccc(C(F)(F)F)c2)C(C)(C)c2ccccc21`: the photoluminescence quantum yield by setting is: (in CCO) 0.11; (in CS(C)=O) 0.16.
In turn, `COc1ccc(C2=[N+]3C(=Nc4c(-c5cc(OC)c(OC)c(OC)c5)cc(-c5ccc(OC)cc5)n4[B-]3(F)F)C(c3cc(OC)c(OC)c(OC)c3)=C2)cc1` had a photoluminescence quantum yield (in Cc1ccccc1) of 0.24.
As to `CC(C)(C)c1ccc2c(c1)c1cc(C(C)(C)C)ccc1n2-c1cccc2c1Oc1c(-c3nc(-c4ccccc4)nc(-c4ccccc4)n3)cccc1C2(C)C`, the photoluminescence quantum yield (in Cc1ccccc1) is 0.06.
Under “in ClC(Cl)Cl”, `F[B-]1(F)OC(c2ccc(Br)cc2)=Cc2ccc3ccccc3[n+]21` yielded a photoluminescence quantum yield of 0.49.
For the compound `Cc1nnc(-c2cc(-n3c4ccccc4c4ccccc43)c(-n3c4ccccc4c4ccccc43)cc2-c2nnc(C)o2)o1`, the photoluminescence quantum yield (in Cc1ccccc1) was 0.287.
For `COc1ccc(C2=CC(c3ccccc3)=[N+]3C2=Nc2c(-c4ccc(OC)cc4)cc(-c4ccccc4)n2[B-]3(F)F)cc1`, the photoluminescence quantum yield amounted to 0.24 (in Cc1ccccc1) and 0.23 (in ClC(Cl)Cl).
Compound `COc1ccc(C2=C(c3ccc(OC)cc3)C(C)(C)c3cc(-c4ccccc4)ccc32)cc1` gave a photoluminescence quantum yield (in C1CCCCC1) of 0.06.
Compound `COc1ccc(-c2ccc(/C=C/c3cnc4ccccc4n3)cc2)cc1` registered a photoluminescence quantum yield (in ClCCl) of 0.42.
Still for that read-out and setting: to `Brc1cc2nc3cc4c5c(cccc5c3nc2cc1Br)C(c1ccccc1)=C(c1ccccc1)O4` belongs 0.12.
With `CCOC(=O)/C(C#N)=C\c1ccc2c(c1)c1ccccc1n2-c1ccc(OC)cc1`, the photoluminescence quantum yield worked out at 0.13 (in C1CCOC1); 0.04 (in CC#N); 0.05 (in CC(C)=O); 0.08 (in CCOC(C)=O); 0.02 (in CO); 0.03 (in CS(C)=O). Besides, the photoluminescence quantum yield was 0.14 (in Cc1ccccc1) and 0.09 (in ClC(Cl)Cl).
Turning to `N#Cc1nn(-c2cccc(C(F)(F)F)c2)nc1N1CCCC1`, the photoluminescence quantum yield (in CC#N) was found to be 0.801.
Compound `c1ccc2c(c1)sc1c3ccccc3c3ncncc3c21` displayed a photoluminescence quantum yield (in ClCCl) of 0.08.
Turning to `CCCCN(CCCC)c1ccc(/C=C/c2ccc3nc(/C=C/c4nc5ccc(/C=C/c6ccc(N(CCCC)CCCC)cc6)cc5n(CCC)c4=O)c(=O)n(CCC)c3c2)cc1`, the photoluminescence quantum yield is 0.18 (in C1COCCO1) and 0.01 (in ClCCl).
For the compound `COC(=O)C[C@H](Cc1c[nH]c2ccccc12)NC(=O)[C@H](CC(=O)N[C@@H](CC1=CCc2ccccc21)C(=O)OC)NC(=O)OC(C)(C)C`, the photoluminescence quantum yield by setting is: (in CC#N) 0.37; (in CCOC(C)=O) 0.22; (in CO) 0.06.
For `C#CCOc1ccc(/C=C/C2=[N+]3C(=C(c4ccc(N(CC)CC)cc4)c4c(C)cc(C)n4[B-]3(F)F)C(C)=C2)cc1`, for the setting “in CO”, the photoluminescence quantum yield was determined as 0.84.
Under “in C1COCCO1”, `CC(C)(C)c1cc(-c2ccc(-c3cc(C(C)(C)C)cc(C(C)(C)C)c3)cc2)cc(C(C)(C)C)c1` displayed a photoluminescence quantum yield of 0.58.
As to `Cc1cc(-c2ccc(-c3nc4ccccc4[nH]3)cc2)ccc1-c1ccc(-c2nc3ccccc3[nH]2)cc1`, where the note is “in CN(C)C=O”, the photoluminescence quantum yield is 0.82.
For `O=C1c2ccccc2-c2ccc(N3CCOCC3)c3cccc1c23`, the photoluminescence quantum yield by setting is: (in C1CCOC1) 0.15; (in CCCCCC) 0.33; (in CCO) 0.12; (in CCOC(C)=O) 0.3; (in CN(C)C=O) 0.14; (in CO) 0.12. Also, the photoluminescence quantum yield runs as follows: (in Cc1ccccc1) 0.64; (in ClC(Cl)(Cl)Cl) 0.18; (in ClC(Cl)Cl) 0.53; (in ClCCl) 0.53; (in c1ccccc1) 0.68.
With `CN1c2cc3nc4cc(Br)c(Br)cc4nc3cc2N(C)C1(C)C`, the photoluminescence quantum yield (in CCO) worked out at 0.11.
`CC1=CC(C)=[N+]2C1=Cc1c3ccccc3c(-c3[nH]c(C)cc3C)n1[B-]2(F)F` displayed a photoluminescence quantum yield (in ClCCl) of 0.61.
Turning to `Cc1cn(CCCn2cc(C)c(=O)[nH]c2=O)c(=O)nc1-n1cncn1`, for the setting “in O”, the photoluminescence quantum yield came out at 0.016.
Under “in CCCCCC”, `COc1ccc(N2c3cc(OC)ccc3N=c3cc4c(cc32)=Nc2cc(C(C)(C)C)cc(C(C)(C)C)c2O4)cc1` yielded a photoluminescence quantum yield of 0.31.
For the setting “in C1CCOC1”, `FC(F)(F)c1ccc(C2=CC3=c4cc(-c5ccc(C(F)(F)F)cc5)c5nc(C(F)(F)C(F)(F)C(F)(F)F)nc6c(-c7ccc(C(F)(F)F)cc7)cc(c4c65)C4=CC(c5ccc(C(F)(F)F)cc5)=C5N=C(C(F)(F)C(F)(F)C(F)(F)F)N=C2C5C43)cc1` (stereo unspecified) came in with a photoluminescence quantum yield of 0.96.
Take `CC(=O)[B-]1(C(C)=O)OC(C)=CC(c2ccc3ccccc3c2)=[O+]1`: the photoluminescence quantum yield (in CC#N) is 0.13 and the photoluminescence quantum yield (in ClC(Cl)(Cl)Cl) worked out at 0.16.
`CCCC1(CCC)c2cc(-c3ccccc3)ccc2-c2ccc(-c3ccc4c(c3)C(CCC)(CCC)c3cc(-c5ccccc5)ccc3-4)cc21` gave a photoluminescence quantum yield (in C1CCCCC1) of 1.
As to `C[C@@]12SC(Cl)=CC1=c1nc(-c3ccc(Cl)cc3)[nH]c1=C1C=C(Cl)S[C@]12C`, the photoluminescence quantum yield (in CC#N) came to 0.009.
The compound `CCOc1cc(C=C2c3ccccc3-c3ccccc32)c(OCC)cc1C=C1c2ccccc2C=Cc2ccccc21` registered a photoluminescence quantum yield (in C1CCOC1) of 0.00012.
`COC(=O)c1ccc(C2=C3C=CC(C)=[N+]3[B-](F)(F)n3c(C)ccc32)cc1`: the photoluminescence quantum yield (in C1CCCCC1) was found to be 0.073; the photoluminescence quantum yield (in C1CCOC1) was determined as 0.056; the photoluminescence quantum yield (in CC#N) came to 0.039; the photoluminescence quantum yield (in CCOC(C)=O) is 0.053; the photoluminescence quantum yield (in CO) came to 0.032; the photoluminescence quantum yield (in Cc1ccccc1) is 0.12. The compound also showed a photoluminescence quantum yield (in ClC(Cl)Cl) of 0.095.
Where the note is “in ClCCl”, `N#Cc1ccc(N(c2ccc(C#N)cc2)c2ccc3c4cccc5c(N(c6ccc(C#N)cc6)c6ccc(C#N)cc6)ccc(c6cccc2c63)c54)cc1` displayed a photoluminescence quantum yield of 0.91.
On the same count and under the same terms, to `N#CC(C#N)=Cc1ccc2c(c1)c1cc(C=C(C#N)C#N)ccc1n2-c1cccc2ccccc12` belongs 0.07.
`COc1ccc(-c2cc3c(o2)=CC2=C(C(F)(F)F)c4cc5oc(-c6ccc(OC)cc6)cc5n4[B-](F)(F)[N+]=32)cc1`: the photoluminescence quantum yield runs as follows: (in C1CCOC1) 0.49; (in CC#N) 0.45; (in CCO) 0.37; (in CO) 0.32; (in Cc1ccccc1) 0.58; (in ClC(Cl)Cl) 0.56.
Turning to `c1ccc(-c2cc3cccc[n+]3[b-]3c(-c4cccc5[b-]4[n+]4ccccc4cc5-c4ccccc4)cccc32)cc1`, under “in C1CCCCC1”, the photoluminescence quantum yield worked out at 0.02.
